Laboratory results from patent US5610174A, “Use of α1A -selective adrenoceptor agonists for the treatment of urinary incontinence” (priority 1995, dated 1997).
Like-named read-outs stand apart in the source and are kept apart here.

Legend:
[1] = target: T1, human α1A adrenoceptor (Homo sapiens, UniProt P25100); assay: cell-based; type: cell-based; details: for Emax: read-out: intrinsic activity (i.a.) α1A; for stimulation of inositol phosphate production, α1A: result in words
T1 sequence (P25100 1-572): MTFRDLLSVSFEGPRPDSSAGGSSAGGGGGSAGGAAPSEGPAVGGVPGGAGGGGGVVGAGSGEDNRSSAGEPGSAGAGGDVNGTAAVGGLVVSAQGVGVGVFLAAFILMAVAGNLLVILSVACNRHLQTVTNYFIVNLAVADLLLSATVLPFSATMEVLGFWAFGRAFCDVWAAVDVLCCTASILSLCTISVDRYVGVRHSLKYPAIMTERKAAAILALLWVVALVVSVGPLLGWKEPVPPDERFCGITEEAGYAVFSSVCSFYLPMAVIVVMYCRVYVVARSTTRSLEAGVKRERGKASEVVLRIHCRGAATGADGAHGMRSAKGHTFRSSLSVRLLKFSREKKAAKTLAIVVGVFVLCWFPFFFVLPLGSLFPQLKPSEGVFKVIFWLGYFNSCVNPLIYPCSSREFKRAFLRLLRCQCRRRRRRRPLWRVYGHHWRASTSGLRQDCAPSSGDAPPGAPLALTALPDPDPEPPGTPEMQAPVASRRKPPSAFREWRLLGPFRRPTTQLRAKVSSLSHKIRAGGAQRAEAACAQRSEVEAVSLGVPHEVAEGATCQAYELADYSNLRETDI
Method: (§1) α1 -Adrenoceptor-Mediated Phosphoinositide Accumulation in Cultured Cell Lines
(§2) The agonist activity of test compounds was assayed by measuring their ability to generate phosphoinositide production in cells stably transfected with each of the three cloned human α1 -adrenoceptor subtypes. Cells were plated in 96-well plates and grown to confluence. The day before the assay the growth medium was changed to 100 μl of medium containing 1% serum and 0.5 μCi [^3 H] myo-inositol, and the plates were incubated overnight in a CO2 incubator (5% CO2 at 37° C.). Immediately before the assay, the medium was removed and replaced by 200 μl of PBS containing 10 mM LiCl, and the cells were equilibrated with the new medium for 20 min. During this interval cells were also equilibrated with the antagonist, added as 10 μl aliquot of a 20-fold concentrated solution in PBS.
(§3) The [^3 H] inositol-phosphate (IP) accumulation was started by adding 10 μl of a solution containing the agonist. To the first well 10 μl were added to measure basal accumulation, and 11 different concentrations of agonist were assayed in the following 11 wells of each plate row. All assays were performed in duplicate by repeating the same additions in two consecutive plate rows. The plates were incubated in a CO2 incubator for 1 hr. The reaction was terminated by adding 15 μl of 50% (v/v) trichloroacetic acid (TCA), followed by a 40 min incubation at 4° C.
(§4) After neutralizing TCA with 40 μl of 1 M Tris, the content of the wells was transferred to a Multiscreen HV filter plate (Millipore) containing Dowex AG1-X8 (200-400 mesh, formate form). The filter plates were prepared adding 200 μl of Dowex AG1-X8 suspension (50% v/v, water:resin) to each well. The filter plates were placed on a vacuum manifold to wash or eluted the resin bed. Each well was washed 2 times with 200 μl of water, followed by 2×200 μ of 5 mM sodium tetraborate/60 mM ammonium formate. The [3H] IPs were eluted into empty 96-well plates with 200 μl of 1.2 M ammonium formate/0.1 formic acid. The content of the wells was added to 3 mls of scintillation cocktail, and the radioactivity was determined by liquid scintillation counting.

[2] = target: T2, human α1C adrenoceptor (Homo sapiens, UniProt P35348); assay: cell-based; type: cell-based; details: for Emax: read-out: intrinsic activity (i.a.) α1C
T2 sequence (P35348 1-466): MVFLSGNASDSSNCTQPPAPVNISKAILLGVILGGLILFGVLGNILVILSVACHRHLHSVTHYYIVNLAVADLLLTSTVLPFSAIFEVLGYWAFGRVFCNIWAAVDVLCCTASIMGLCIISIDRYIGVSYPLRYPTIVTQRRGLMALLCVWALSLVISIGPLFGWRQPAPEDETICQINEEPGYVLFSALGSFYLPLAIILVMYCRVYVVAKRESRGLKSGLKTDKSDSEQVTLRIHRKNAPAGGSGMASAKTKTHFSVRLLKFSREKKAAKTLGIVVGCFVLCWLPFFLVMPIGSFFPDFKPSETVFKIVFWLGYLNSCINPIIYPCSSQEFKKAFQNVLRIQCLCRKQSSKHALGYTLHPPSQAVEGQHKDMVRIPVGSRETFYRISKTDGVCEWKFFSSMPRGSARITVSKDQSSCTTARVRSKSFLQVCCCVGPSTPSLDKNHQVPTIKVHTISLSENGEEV
Method: as §1, §2, §3, §4

[3] = target: T3, human α1B adrenoceptor (Homo sapiens, UniProt P35368); assay: Radioligand binding ([3H]prazosin) at cloned human α1B
T3 construct: The entire coding region of the α1B receptor (1563 bp); expressed in transfected cells
T3 sequence (P35368 1-520): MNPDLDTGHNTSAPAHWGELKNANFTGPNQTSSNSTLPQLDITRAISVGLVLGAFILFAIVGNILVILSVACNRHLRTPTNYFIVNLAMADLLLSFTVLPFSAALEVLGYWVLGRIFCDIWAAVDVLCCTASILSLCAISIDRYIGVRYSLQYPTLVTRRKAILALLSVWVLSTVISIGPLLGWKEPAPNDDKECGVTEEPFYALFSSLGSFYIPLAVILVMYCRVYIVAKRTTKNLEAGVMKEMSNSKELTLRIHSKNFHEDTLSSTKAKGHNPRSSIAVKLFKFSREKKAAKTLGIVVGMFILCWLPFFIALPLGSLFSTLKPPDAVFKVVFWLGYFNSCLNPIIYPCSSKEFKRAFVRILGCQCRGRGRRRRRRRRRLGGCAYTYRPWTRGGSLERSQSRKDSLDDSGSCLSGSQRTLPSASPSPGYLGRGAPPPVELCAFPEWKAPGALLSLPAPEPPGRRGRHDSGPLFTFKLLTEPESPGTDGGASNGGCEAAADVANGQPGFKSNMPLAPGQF
Method: These cell lines were prepared by transfecting the cloned cDNA or cloned genomic DNA or constructs containing both genomic DNA and cDNA encoding the human α-adrenoceptors as follows:
The construct involved ligating the full-length containing EcoRI brainstem cDNA fragment from λ ZapII into the expression vector. Stable cell lines were obtained as described above.
Transfected cells from culture flasks were scraped into 5 ml of 5 mM Tris-HCl, 5 mM EDTA, pH 7.5, and lysed by sonication. The cell lysates were centrifuged at 1000 rpm. for 5 min at 4° C., and the supernatant was centrifuged at 30,000 ×g for 20 min at 4° C. The pellet was suspended in 50 mM Tris-HCl , 1 mM MgCl2, and 0.1% ascorbic acid at pH 7.5. […] The reaction was stopped by filtration through GF/B filters using a cell harvester.

[4] = agonist, phosphoinositide accumulation, read-out: pEC50 α1A (converted)
[5] = relative to reference full agonist (e.g., norepinephrine = unity)
[6] = agonist, phosphoinositide accumulation, read-out: pEC50 α1C (converted)

CNCCc1ccc(O)c(NS(C)(=O)=O)c1 [SK&F 102652]
Emax [1]: 10% | stimulation of inositol phosphate production, α1A [1]: virtually inactive | stimulation of inositol phosphate production, α1C [2]: fully stimulate | Emax [2]: 110%

CS(=O)(=O)Nc1c(O)ccc2c1CCCC2C1=NCCN1 (racemic) [Compound A-61603, (±)-N-[5-(4,5-Dihydro-1H-imidazol-2-yl)-2-hydroxy-5,6,7,8-tetra-hydronaphthalen-1-yl]methanesulfonamide]
EC50 [1, 4]: 25.1 µM | Emax [1, 5]: 10% | stimulation of inositol phosphate production, α1A [1]: virtually inactive | Emax [2, 5]: 120% | stimulation of inositol phosphate production, α1C ([2]; result in words): fully stimulate | Ki [3]: 15.8 µM

COc1ccc(OC)c(C(O)CN)c1 (racemic) [ST-1059, (±)-2-Amino-1-(2, 5 dimethoxyphenyl) ethanol]
EC50 [1]: 1.58 µM | Emax [1]: 10% | EC50 [2]: 2 µM | Emax [2, 5]: 90% | Ki [3]: 12.6 µM

C[C@H](N)[C@H](O)c1ccccc1 [(-)-norephedrine]
EC50 [1]: 15.8 µM | Emax [1]: 30% | EC50 [2, 6]: 50.1 µM | Emax [2, 5]: 40% | Ki [3]: 50.1 µM

COc1ccccc1N1CCN(CCCNc2c(C)c(=O)n(C)c(=O)n2C)CC1 [Compound 5-MU]
Ki ([3]; Table 2, antagonists, versus 3H-prazosin, read-out: pKI (antagonist affinity, 3H-prazosin binding) hα1B (converted)): 0.126 µM

CN[C@@H](C)[C@H](O)c1ccccc1 [(-)-ephedrine]
EC50 [1]: 100 µM | Emax [1]: 10% | EC50 [2, 6]: 100 µM | Emax [2, 5]: 10% | Ki [3]: 100 µM

CNC[C@H](O)c1cccc(O)c1 [(-)-phenylephrine]
Emax [1, 5]: 70% | Emax [2, 5]: 90%

COc1cc2c(cc1OC)CN(c1cc(N)c3cc(OC)c(OC)cc3n1)CC2 [Abanoquil, 2-(6,7-Dimethoxy-3,4-dihydro-1H-isoquinolin-2-yl)-6,7-dimethoxyquinolin-4-ylamine hemifumarate hydrate]
pKI (antagonist affinity, 3H-prazosin binding) hα1B ([3]; Table 2, antagonists, versus 3H-prazosin): 10.1

COc1ccc(SC)c2c1C[C@@H]1[C@@H](C2)OCCN1C (relative stereo) [SDZ NVI-085, (±)-trans-4-Methyl-6-methoxy-9-thiomethoxy-3,4,4a, 5,10,10a-hexahydro-2H-naphtho[2,3-b][1,4]oxazine]
EC50 [1, 4]: > 100 µM | Emax [1]: 0% | EC50 [2, 6]: 0.398 µM | Emax [2, 5]: 110% | Ki ([3]; Table 3, agonists, read-out: pKi α1B (converted)): 12.6 µM
